Measured values as given in US20240065999A1, “Ophthalmic Formulation Containing a Dopaminergic Prodrug that may be Combined with One or More Agents” (The Board of Trustees of the Leland Stanford Junior …, priority 2020, published 2024).
≈ marks a conversion by molar mass, not a printed value. Counter-ions that a name gives are not always drawn. Like-named read-outs stand apart in the source and are kept apart here.

How the values were obtained:
[1] = ibopamine for hypotony, before 24 weeks; cited from earlier work
axial elongation [2] = settings: chick, Thomson et al., cited from earlier work
axial elongation [3] = assay: Reduction of axial elongation by levodopa in chicks (Thomson et al.); assay type: in vivo; settings: Gallus gallus; calculated using a chick vitreous volume of 200 μL; read-out: EC50 as intravitreal concentration
[4] = Maximum solubility / achievable concentration of topical solutions; assay type: physicochemical
Excerpt: PBS was used as a vehicle control.

[5] = pig, 24 h, 0.5 %
Excerpt: (§1) To assess the vitreous penetration, dopamine (dopamine hydrochloride; Sigma-Aldrich, St. Louis, Mo., USA), and etilevodopa (BOC Sciences, Shirley, N.Y., USA) were freshly dissolved in phosphate buffered saline solution (PBS, pH 7.4; Aniara, West Chester, Ohio, USA) at the concentration of 0.5%, whereas levodopa (Sigma-Aldrich) was freshly dissolved in distilled water at 0.5%. Thirty microliters of each solution was placed onto the cornea of enucleated porcine eyes (Animal Technologies, Tyler, Tex., USA; at least six porcine eyes were studied for each treatment), which were no more than 30 hours since enucleation and were maintained on ice throughout experimentation. PBS was used as a vehicle control. The vitreous humor sample was collected after 24 hours for quantitative measurement of dopaminergic derivative level using an enzyme-linked immunosorbent assay (ELISA) kit according to the manufacturers' protocol (dopamine ELISA kit; Immuno-Biological Laboratories, Inc., Minneapolis, Minn., USA).

intravitreal dopamine = settings: chick eyes with negative lenses, after three days of treatment; cited from earlier work
[6] = Observation of rat behavior during the 28-day study; assay type: in vivo; settings: once-daily topical etilevodopa
[7] = Ex vivo ocular penetration of dopamine and dopaminergic derivatives in enucleated porcine eyes (dopamine ELISA); settings: topical
Excerpt: as §1

rat eyes = assay: Histology and immunohistochemistry (H&E, cleaved caspase-3, TUNEL) of rat eyes; assay type: in vivo, Long Evans rat; settings: 5 μL etilevodopa 10% once daily, 14 and 28 days
Protocol: To assess for inflammation and apoptosis, 5 μL of etilevodopa 10% was administered as a once-daily eye drop to one eye of each rat, and the contralateral eye received PBS as a control. Rat eyes were enucleated at 14 and 28 days after treatment and fixed in 4% paraformaldehyde (VWR, Visalia, Calif., USA) overnight at 4° C., dehydrated in graded series of sucrose and alcohol, frozen, and cut into 12 μm sections onto glass slides.
For inflammation, frozen sections were first fixed in 10% formalin (Sigma-Aldrich) for 20 minutes and washed in water, followed by staining the nuclei with hematoxylin for three minutes and washing in water again. The slides were then dipped in lithium carbonate (bluing agent) for 45 seconds, washed in water, immersed in 95% ethanol (2-3 dips), and stained with eosin for another three minutes. After dehydrating in 95% ethanol for one minute and then in 100% ethanol for two minutes, the slides were mounted with Cytoseal 60 and imaged using Nikon Eclipse E800 microscope (Nikon Corp., Tokyo, Japan).
For apoptosis, sections were stained with cleaved caspase-3 (Cell Signaling, Beverly, Mass., USA). Briefly, sections were first washed with washing buffer (0.1% Triton X-100 in PBS) three times for five minutes each, blocked with 5% bovine serum albumin (Fraction V; Sigma-Aldrich) in washing buffer for one hour, followed by incubating in primary antibody-cleaved caspase-3 (1:200 in washing buffer) for two hours. After washing three times for five minutes each, sections were incubated in secondary antibody (AlexaFluor 488 donkey anti-rabbit IgG; 1:400; Invitrogen, Waltham, Mass., USA) in washing buffer for one hour, followed by washing another three times and mounting with 4′,6-diamidino-2-phenylindole (DAPI)-containing mounting media (Vectashield; Vector Laboratories, Burlingame, Calif., USA). Slides were imaged using Leica DMi8 microscope (Leica Microsystems Inc., Buffalo Grove, Ill., USA). Terminal deoxynucleotidyl transferase dUTP nick end labeling (TUNEL) assay was also performed to further detect apoptosis using TUNEL label mix kit (Sigma-Aldrich). […]

[8] = In vivo pharmacokinetics after a single topical treatment of etilevodopa 10% in Long Evans rat eyes; settings: single topical etilevodopa 10%, noncompartmental analysis
Protocol: To assess the short-term pharmacokinetic effect, 5 μL of etilevodopa 10% was instilled onto a rat eye. At one, two, four, eight, and 24 hours, rats were sacrificed (at least three rats were studied at each time point). Serum was obtained by allowing the blood sample to clot at room temperature for 0.5 to 1 hour, followed by centrifuging at 13,000 rpm for 10 minutes (MiniSpin Eppendorf; Thermo Fisher Scientific, Waltham, Mass., USA). Serum was then frozen at −80° C. until tested. Eyes were enucleated and collected for quantitative measurement of dopaminergic derivative levels. Concentrations of dopaminergic derivative in both whole eye and vitreous/retina were measured for pharmacokinetic evaluation. Briefly, tissue samples were incubated with 150 μL lysis buffer (CelLytic MT Cell Lysis Reagent; Sigma-Aldrich) for 0.5 to 1 hour, followed by centrifuge at 13,000 rpm for 10 minutes, and the supernatant was collected. All samples were immediately frozen at −80° C. until tested. The level of dopaminergic derivative was measured in both serum and eye using a dopamine ELISA kit (Immuno-Biological Laboratories, Inc.) according to the manufacturer's instruction.

Long Evans rat eyes = assay: Clinical examination, OCT imaging and ERG after once-daily topical etilevodopa; assay type: in vivo
Protocol: Etilevodopa 10% 5 μL was administered as an eye drop once daily to one eye of each rat for 28 consecutive days, and the contralateral eye received PBS as a control. To assess the tolerability after administering etilevodopa over time, clinical examination was conducted at 14 and 28 days during treatment. To assess retinal structure and function, spectral-domain OCT (Spectralis HRA+OCT instrument; Heidelberg Engineering, Heidelberg, Germany) and full-field ERG (D300; Diagnosys LLC, Lowell, Mass., USA) were also performed at 14 and 28 days. Briefly, rats were first anesthetized with intraperitoneal injection of a mixture of ketamine hydrochloride (75 mg/kg; Hospira, Inc., Lake Forest, Ill., USA) and xylazine (5 mg/kg; Bedford Laboratories, Bedford, Ohio, USA). The corneas were topically anesthetized with tetracaine 0.5% (Alcon Laboratories, Inc. Fort Worth, Tex., USA), and the pupils were dilated with tropicamide 1% (Akorn, Inc., Lake Forest, Ill., USA) and phenylephrine hydrochloride 2.5% (Akorn, Inc.).
For clinical examination, 1% methylcellulose and a plastic coverslip were applied to the cornea to enhance visualization. A Zeiss OPMI MDO S5 Microscope (Prescott's, Inc., Monument, Col., USA) with an Excelis camera (ACCU-SCOPE, Inc., Commack, N.Y., USA) was used to digitally record ocular photos.
For OCT, 1% methylcellulose and a coverslip were placed on the anesthetized rat cornea. A commercially available 78-D double aspheric fundus lens (Volk Optical, Inc., Mentor, Ohio, USA) was mounted in front of the OCT and images were taken with proprietary software (Eye Explorer, version 3.2.1.0; Heidelberg Engineering). A raster scan of 19 equally spaced horizontal B-scans centered on the optic nerve was captured.
For full-field ERG, rats were dark-adapted overnight. A gold wire loop was placed on the cornea of both eyes, a reference electrode was placed subcutaneously on the nose, and a ground electrode was placed in the tail. ERG responses were recorded from both eyes simultaneously. The flash intensity was set at six increasing intensities of 0.0001, 0.001, 0.01, 0.1, 1, and 3 cd·s/m2. ERG recordings were averaged over 10 presentations of a single one-millisecond flash with a 10-second interstimulus interval. The A-wave amplitude was measured from the baseline to trough, while the B-wave was measured from the trough to peak.

myopic progression = settings: ATOM trial, cited from earlier work
[9] = 1% atropine nightly in one eye over two years

**Q.** For `CNCCc1ccc(OC(=O)C(C)C)c(OC(=O)C(C)C)c1` [ibopamine], which “patients who stopped using the drug due to follicular conjunctivitis or irritation” value [1] is on record?
**A.** 8 of 17

**Q.** What does the source list for `N[C@@H](Cc1ccc(O)c(O)c1)C(=O)O` [levodopa]?
**A.** EC50 (axial elongation [2]; intravitreal administration, 10 μL dose, read-out: EC50 for a reduction of axial elongation): 800 nM; EC50 for a reduction of axial elongation (axial elongation [2]; topical levodopa): 0.05%; EC50 (axial elongation [3]): ~7.9 ng/mL (≈ 0.0401 µM); maximum concentration achievable ([4]; distilled water): 0.5%; concentration of dopaminergic derivatives in the vitreous [5]: 11.9 ng/mL

**Q.** With “insulin (Insulin B chain AANQHLCGSHLVEALYLVCGERGFFYSPKA; Insulin A chain GIVEQCCHNTCSLYQLENYCN; UniProt P67970 25-54; P67970 87-107, looked up) [insulin injected into chick eyes treated with negative lenses]” as the compound, how does the “increase in intravitreal dopamine” value (intravitreal dopamine) read?
**A.** 2 fold

**Q.** With `CCOC(=O)[C@@H](N)Cc1ccc(O)c(O)c1` [etilevodopa] as the compound, how does the “rat behavior (activity levels, aggression, feeding pattern, weight gain)” value [6] read?
**A.** no obvious changes in rat behavior

**Q.** And the “corneal penetration as compared to levodopa at a given concentration” value [7]?
**A.** did not exhibit enhanced corneal penetration

**Q.** What about the maximum solubility ([4]; PBS, pH 7.4) of the same compound?
**A.** 10%

**Q.** And the “TUNEL+ DAPI+ cells” value (rat eyes)?
**A.** no TUNEL+ DAPI+ cells observed

**Q.** And the “hematoxylin and eosin staining of the retina” value (rat eyes)?
**A.** no infiltration of inflammatory cells, fibrosis or morphological changes

**Q.** And the “number of cleaved caspase-3+ DAPI+ cells, treatment vs control” value (rat eyes)?
**A.** no statistically significant change

**Q.** What about the AUC0→∞ ([8]; blood) of the same compound?
**A.** 11.2 ng·h/mL

**Q.** And the AUC0→∞ ([8]; retina/vitreous)?
**A.** 818 ng·h/mL

**Q.** And the AUC0→∞ ([8]; whole eye)?
**A.** 4300 ng·h/mL

**Q.** And the direct toxicity (Long Evans rat eyes; four-week application as a topical eye drop)?
**A.** no evidence of direct toxicity

**Q.** And the “ERG A-wave amplitude, treated vs control eyes” value (Long Evans rat eyes; in vivo)?
**A.** no statistically significant difference

**Q.** And the “ERG B-wave amplitude, treated vs control eyes” value (Long Evans rat eyes; in vivo)?
**A.** no statistically significant difference

**Q.** And the OCT retinal structure (Long Evans rat eyes; in vivo)?
**A.** did not demonstrate any qualitative structural changes

**Q.** What about the “clinical eye photos (inflammatory response, corneal opacity, fundus abnormalities, conjunctival redness)” value (Long Evans rat eyes; in vivo) of the same compound?
**A.** no evidence of inflammatory response, corneal opacity, fundus abnormalities, or conjunctival redness

**Q.** What about the “cornea and lens clarity” value (Long Evans rat eyes; in vivo) of the same compound?
**A.** remained clear

**Q.** And the “overall retina morphology and blood vessels” value (Long Evans rat eyes; in vivo)?
**A.** remained unchanged

**Q.** And the “retinal detachment, edema or inflammation” value (Long Evans rat eyes; in vivo)?
**A.** No retinal detachment, edema or inflammation was observed

**Q.** Which results are given for `CN1[C@@H]2CC[C@H]1C[C@@H](OC(=O)C(CO)c1ccccc1)C2` (some centres unmarked) [atropine]?
**A.** diopter difference (myopic progression; [9]): ~+0.8 diopter; reduction of myopic progression (myopic progression; [9]): 77%; axial length (myopic progression; 1% atropine nightly over two years): remained unchanged

**Q.** For `NCCc1ccc(O)c(O)c1` [dopamine, dopamine hydrochloride], which “concentration of dopaminergic derivatives in the vitreous” value [5] is on record?
**A.** 375.1 ng/mL

**Q.** And the “fold higher intravitreal concentration as compared to etilevodopa 10%” value [5]?
**A.** 10 fold
